Here are results for one compound from patent US20080152644A1, “Genes Involved in Neurodegenerative Conditions” (priority 2005, published 2008).

SMILES strings stand for the structures.

Type in all cases: in vivo, Drosophila
The subject of experiment [1] is transgenic flies expressing A-beta42. The experiment is described as follows: Lifespan of transgenic flies expressing A-beta42 fed RAD001. The settings on record: fed every three days with 10, 20, 30 and 60 uM RAD001; effect seen even at the lowest concentration; FIG. 7. The protocol: Flies were maintained in corn meal based standard fly food (Ashburner, 1989). Parental crosses were set up at 25° C. and F1 progeny was collected and raised at 29° C. (FIG. 1). Flies are crossed and maintained at 25° C. according to conventional methods except that all progeny are kept at 29° C. for maximal expression of phenotypes. In the binary Gal4 expression system, this temperature maximizes activity of the Gal4 protein. In the case of ElavGal4C^155/UAS-A-beta42, it is observed that the phenotype is stronger at 29° C., so these flies are kept at this temperature as well.
For 2nd and 3rd chromosome P-element strains, crosses were set using male flies (about 10) from the P-element strain and virgin females (about 10) from the A-beta42 over-expressing strain (ElavGal4C^155/UAS-A-beta42). For X-chromosome P strains, about 10 virgin females were collected from individual P strains and mated with 10 males from the A-beta over-expressing strain. […] 10 vials with 20 progeny from each cross were kept at 29° C. and scored for viability and behavior phenotypes as well as for general morphological changes. For scoring, live flies were transferred to fresh vials and the dead flies were counted every 2-3 days. […]
If successful, this treatment would provide the same beneficiary effect on A-beta42 induced toxicity found through genetic modification. […] Lifespan was scored until all the RAD001 fed flies died. […]

Experiment [2] has the same test system. Kind of experiment: Climbing assay (locomotor activity) of RAD001 fed flies expressing A-beta42. The settings on record: RAD001 fed flies at 21 day, compared to placebo fed flies; data not shown. From the text: For the locomotion assay, 20 flies of each experimental genotype were scored at 3, 10 and 15 days of age. Flies were transferred to fresh vials, tapped down and recorded for a few minutes until their climbing came to an equilibrium.
In order to analyze locomotion activity, we used a “climbing assay” (Le Bourg E, Lints F A. (1992). Hypergravity and aging in Drosophila melanogaster. 4. Climbing activity. Gerontology. 38:59-64), which measures the negative geotropic response that flies naturally display. Groups of flies at different stages of adult life (3, 10, 15 days) from experimental and control groups were assayed. […] Three different UAS-A-beta42 strains were used, expressing different amounts of A-beta42 peptide (A-beta42^H29.3, A-beta42^HJ2.12, A-beta42^HJ2.19). Strains A-beta42^HJ2.12 and A-beta42^HJ2.19 express higher levels of the peptide than strain A-beta42^H29.3.
If successful, this treatment would provide the same beneficiary effect on A-beta42 induced toxicity found through genetic modification. Flies expressing A-beta42 were fed every three days with 10 uM, 20 uM, 30 uM and 60 uM (where uM=10^−6 M) concentration of RAD001. Lifespan was scored until all the RAD001 fed flies died. The climbing assay was performed on RAD001 fed flies at 21 day, and compared to placebo fed flies.

The next experiment concerns A-beta42. The experiment is described as follows: Sandwich ELISA of A-beta42 extracted from heads of transgenic flies fed RAD001. To be noted: FIG. 8. The protocol: Antibodies: Mouse monoclonal antibody directed to the NH2 terminus of the A-beta peptide was used as the capture antibody (Biosource Cat#44-352-100). The antibody was diluted in 1×PBS 1:2900 (3.5 μl/10 ml) and applied to Maxisorb Plates (Nunc Cat#442404) and 100 ul/96 well or 50 μl/384 well by incubating overnight at 4C. Polyclonal detection antibodies were obtained from Biosource (anti-hA-beta40 Cat#44-348 and anti-hA-beta42 Cat#44-344) and diluted 1/2000 in 1% BSA/PBS […]. The tertiary antibody (Santa Cruz Cat# SC2313) was a horseradish peroxidase labeled anti-rabbit IgG (Diluted 1/5000 in 1% BSA/PBS).
Preparation of the A-beta standards: 2.31 g of sodium bicarbonate was dissolved in 500 mL of distilled water and the pH was adjusted to 9.0 with 2N sodium hydroxide. […]
Indirect Two Sandwich ELISA: After the overnight incubation with capture antibody the plates were washed twice on a microplate washer (Bioteck Instruments, Inc) in 1×PBS/0.05% Tween 20/1 mM EDTA). […] The plates were read on a microplate reader at […] (Molecular Devices, Inc.) within one hour.
The amount of A-beta42 from the heads of aged flies expressing A-beta42 was measured to see whether inactivation or reduced activation of Tor function affects the amount of A-beta42, such that it would correlate with the amelioration of A-beta42 induced toxicity. […]

As to `CO[C@H]1C[C@@H]2CC[C@@H](C)[C@@](O)(O2)C(=O)C(=O)N2CCCC[C@H]2C(=O)O[C@H]([C@H](C)C[C@@H]2CC[C@@H](OCCO)[C@H](OC)C2)CC(=O)[C@H](C)/C=C(\C)[C@@H](O)[C@@H](OC)C(=O)[C@H](C)C[C@H](C)/C=C/C=C/C=C/1C` [RAD001], the “lifespan of flies expressing A-beta42” value in experiment [1] was “partial rescue of lifespan”. The “locomotor defect (climbing assay)” value in experiment [2] was “partially abrogated”. Further, in the experiment on A-beta42 (flies dosed with 60 uM RAD001, heads of 13 day old flies), the “total A-beta42” value is given as “pronounced decrease”. Further, the “reduction of the amount of soluble A-beta42” value in the experiment with A-beta42 (heads of 13 day old flies fed 10-60 uM RAD001 every three days, normalized to total protein, vs placebo) is reported as “up to 42%”.
